# Laboratory results published in the NIST ThermoML archive (doi:10.1016/j.jct.2013.09.043).
# Numbers after ± are expanded uncertainties.
# Columns and labels:
# [1] = xn = mol fraction of the nth substance listed; conditions: 101 kPa, Liquid; for viscosity: Capillary tube (Ostwald / Ubbelohde) method; for mass density: Vibrating tube method
# [2] = 101 kPa, Liquid; for viscosity: Capillary tube (Ostwald / Ubbelohde) method; for mass density: Vibrating tube method
SMILES,viscosity ([2]; 298.15 K),mass density ([2]; 298.15 K),viscosity ([2]; 303.15 K),mass density ([2]; 303.15 K),viscosity ([2]; 308.15 K),mass density ([2]; 308.15 K),viscosity ([2]; 313.15 K),mass density ([2]; 313.15 K),further results
NC=O [formamide] + CCCCC(C)O,–,–,–,–,–,–,–,–,"viscosity ([1]; 298.15 K, x1 = 1): 3.305 ± 0.13 mPa·s; mass density ([1]; 298.15 K, x1 = 1): 1129 ± 1 kg/m3; viscosity ([1]; 303.15 K, x1 = 1): 2.975 ± 0.12 mPa·s; mass density ([1]; 303.15 K, x1 = 1): 1125.1 ± 1 kg/m3; viscosity ([1]; 308.15 K, x1 = 1): 2.64 ± 0.11 mPa·s; mass density ([1]; 308.15 K, x1 = 1): 1120.98 ± 1 kg/m3; viscosity ([1]; 313.15 K, x1 = 1): 2.42 ± 0.098 mPa·s; mass density ([1]; 313.15 K, x1 = 1): 1116.85 ± 1 kg/m3"
NC=O [formamide] + CCCC(C)O,–,–,–,–,–,–,–,–,"viscosity ([1]; 298.15 K, x1 = 1): 3.305 ± 0.13 mPa·s; mass density ([1]; 298.15 K, x1 = 1): 1129 ± 1 kg/m3; viscosity ([1]; 303.15 K, x1 = 1): 2.975 ± 0.12 mPa·s; mass density ([1]; 303.15 K, x1 = 1): 1125.1 ± 1 kg/m3; viscosity ([1]; 308.15 K, x1 = 1): 2.64 ± 0.11 mPa·s; mass density ([1]; 308.15 K, x1 = 1): 1120.98 ± 1 kg/m3; viscosity ([1]; 313.15 K, x1 = 1): 2.42 ± 0.098 mPa·s; mass density ([1]; 313.15 K, x1 = 1): 1116.85 ± 1 kg/m3"
CCC(C)O (stereo not drawn) [butan-2-ol] + NC=O,–,–,–,–,–,–,–,–,"viscosity ([1]; 298.15 K, x2 = 0): 3.034 ± 0.12 mPa·s; mass density ([1]; 298.15 K, x2 = 0): 803.09 ± 1 kg/m3; viscosity ([1]; 303.15 K, x2 = 0): 2.527 ± 0.1 mPa·s; mass density ([1]; 303.15 K, x2 = 0): 798.89 ± 1 kg/m3; viscosity ([1]; 308.15 K, x2 = 0): 2.125 ± 0.086 mPa·s; mass density ([1]; 308.15 K, x2 = 0): 795.04 ± 1 kg/m3; viscosity ([1]; 313.15 K, x2 = 0): 1.798 ± 0.073 mPa·s; mass density ([1]; 313.15 K, x2 = 0): 790.15 ± 1 kg/m3"
CCC(C)O (stereo not drawn) [butan-2-ol],3.034 ± 0.12 mPa·s,803.09 ± 1 kg/m3,2.527 ± 0.1 mPa·s,798.89 ± 1 kg/m3,2.125 ± 0.086 mPa·s,795.04 ± 1 kg/m3,1.798 ± 0.073 mPa·s,790.15 ± 1 kg/m3,–
CCCCC(C)O (stereo not drawn) [2-hexanol],4.101 ± 0.17 mPa·s,810.14 ± 1 kg/m3,3.411 ± 0.14 mPa·s,806.13 ± 1 kg/m3,2.819 ± 0.12 mPa·s,802.06 ± 1 kg/m3,2.219 ± 0.09 mPa·s,797.96 ± 1 kg/m3,–
NC=O [formamide],3.305 ± 0.13 mPa·s,1129 ± 1 kg/m3,2.975 ± 0.12 mPa·s,1125.1 ± 1 kg/m3,2.64 ± 0.11 mPa·s,1120.98 ± 1 kg/m3,2.42 ± 0.098 mPa·s,1116.85 ± 1 kg/m3,–
CC(C)O [propan-2-ol] + NC=O,–,–,–,–,–,–,–,–,"viscosity ([1]; 298.15 K, x2 = 0): 2.077 ± 0.084 mPa·s; mass density ([1]; 298.15 K, x2 = 0): 780.95 ± 1 kg/m3; viscosity ([1]; 303.15 K, x2 = 0): 1.787 ± 0.072 mPa·s; mass density ([1]; 303.15 K, x2 = 0): 776.79 ± 1 kg/m3; viscosity ([1]; 308.15 K, x2 = 0): 1.558 ± 0.063 mPa·s; mass density ([1]; 308.15 K, x2 = 0): 772.39 ± 1 kg/m3; viscosity ([1]; 313.15 K, x2 = 0): 1.351 ± 0.055 mPa·s; mass density ([1]; 313.15 K, x2 = 0): 767.76 ± 1 kg/m3"
CCCC(C)O (stereo not drawn) [pentan-2-ol],3.423 ± 0.14 mPa·s,805.05 ± 1 kg/m3,2.834 ± 0.12 mPa·s,800.88 ± 1 kg/m3,2.348 ± 0.095 mPa·s,796.89 ± 1 kg/m3,1.979 ± 0.08 mPa·s,792.62 ± 1 kg/m3,–
CCCCCC(C)O (stereo not drawn) [2-heptanol],5.296 ± 0.21 mPa·s,813.38 ± 1 kg/m3,4.315 ± 0.17 mPa·s,809.5 ± 1 kg/m3,3.535 ± 0.14 mPa·s,805.72 ± 1 kg/m3,2.96 ± 0.12 mPa·s,801.46 ± 1 kg/m3,–
CC(C)O [propan-2-ol],2.077 ± 0.084 mPa·s,780.95 ± 1 kg/m3,1.787 ± 0.072 mPa·s,776.79 ± 1 kg/m3,1.558 ± 0.063 mPa·s,772.39 ± 1 kg/m3,1.351 ± 0.055 mPa·s,767.76 ± 1 kg/m3,–
NC=O [formamide] + CCCCCC(C)O,–,–,–,–,–,–,–,–,"viscosity ([1]; 298.15 K, x1 = 1): 3.305 ± 0.13 mPa·s; mass density ([1]; 298.15 K, x1 = 1): 1129 ± 1 kg/m3; viscosity ([1]; 303.15 K, x1 = 1): 2.975 ± 0.12 mPa·s; mass density ([1]; 303.15 K, x1 = 1): 1125.1 ± 1 kg/m3; viscosity ([1]; 308.15 K, x1 = 1): 2.64 ± 0.11 mPa·s; mass density ([1]; 308.15 K, x1 = 1): 1120.98 ± 1 kg/m3; viscosity ([1]; 313.15 K, x1 = 1): 2.42 ± 0.098 mPa·s; mass density ([1]; 313.15 K, x1 = 1): 1116.85 ± 1 kg/m3"
